Measured values published in patent US8829007B2 (priority 2009, dated 2014).
Read-outs that look alike come from different tables or passages of the source.

What was measured:
[1] = tested on: influenza A virus (A/PR/8/34); test: microbe, parasite or virus in culture; format: cell-based; settings: Influenza A virus, PR/8, MDCK, read-out: IC50 (mean all)
[2] = tested on: A/PR/8/34 influenza virus; test: microbe, parasite or virus in culture; format: cell-based
[3] = MDCK cells infected with A/PR/8/34, cell protection (CPE)
[4] = Influenza A virus, PR/8, MDCK, MDCK cells infected with A/PR/8/34, bDNA viral RNA; read-out: EC50 (mean all)
[5] = Influenza A virus, PR/8, MDCK, read-out: EC50 (mean all)
[6] = Influenza A virus, PR/8, MDCK; read-out: EC50 (mean all)

SMILES	IC50 [1, 3] [µM]	EC50 [2, 4] [µM]	IC50 [1] [µM]	EC50 [2, 5] [µM]	EC50 [2, 6] [µM]
O=C(CC(F)(F)F)N1CCC[C@@H](CNc2nc(-c3c[nH]c4ncc(Cl)cc34)ncc2F)C1 [Compound 44, (S)-1-(3-((2-(5-chloro-1H-pyrrolo[2,3-b]pyridin-3-yl)-5-fluoropyrimidin-4-ylamino)methyl)piperidin-1-yl)-3,3,3-trifluoropropan-1-one]	< 5	< 5	–	–	–
COCC(=O)N1CCC[C@@H](CNc2nc(-c3c[nH]c4ncc(Cl)cc34)ncc2F)C1 [Compound 45, (S)-1-(3-((2-(5-chloro-1H-pyrrolo[2,3-b]pyridin-3-yl)-5-fluoropyrimidin-4-ylamino)methyl)piperidin-1-yl)-2-methoxyethanone]	< 5	< 5	–	–	–
O=C(Cc1cccnc1)N1CCC[C@@H](CNc2nc(-c3c[nH]c4ncc(Cl)cc34)ncc2F)C1 [Compound 47, (S)-1-(3-((2-(5-chloro-1H-pyrrolo[2,3-b]pyridin-3-yl)-5-fluoropyrimidin-4-ylamino)methyl)piperidin-1-yl)-2-(pyridin-3-yl)ethanone]	< 5	< 5	–	–	–
C=CCC(=O)N1CCC[C@@H](CNc2nc(-c3c[nH]c4ncc(Cl)cc34)ncc2F)C1 [Compound 49, (S)-1-(3-((2-(5-chloro-1H-pyrrolo[2,3-b]pyridin-3-yl)-5-fluoropyrimidin-4-ylamino)methyl)piperidin-1-yl)but-3-en-1-one]	< 5	< 5	–	–	–
O=C1CC[C@H](C(=O)N2CCC[C@@H](CNc3nc(-c4c[nH]c5ncc(Cl)cc45)ncc3F)C2)O1 [Compound 51, (R)-5-((S)-3-((2-(5-chloro-1H-pyrrolo[2,3-b]pyridin-3-yl)-5-fluoropyrimidin-4-ylamino)methyl)piperidine-1-carbonyl)dihydrofuran-2(3H)-one]	< 5	< 5	–	–	–
C#CCCC(=O)N1CCC[C@@H](CNc2nc(-c3c[nH]c4ncc(Cl)cc34)ncc2F)C1 [Compound 52, (S)-1-(3-((2-(5-chloro-1H-pyrrolo[2,3-b]pyridin-3-yl)-5-fluoropyrimidin-4-ylamino)methyl)piperidin-1-yl)pent-4-yn-1-one]	< 5	< 5	–	–	–
O=C(O)[C@H]1CC[C@@H](C(=O)N2CCC[C@H](CNc3nc(-c4c[nH]c5ncc(Cl)cc45)ncc3F)C2)C1 [Compound 55, (1S,3R)-3-((R)-3-((2-(5-chloro-1H-pyrrolo[2,3-b]pyridin-3-yl)-5-fluoropyrimidin-4-ylamino)methyl)piperidine-1-carbonyl)cyclopentanecarboxylic acid]	< 5	< 5	–	–	–
O=C(Cc1ccccc1)N1CCC[C@H](CNc2nc(-c3c[nH]c4ncc(Cl)cc34)ncc2F)C1 [Compound 56, (R)-1-(3-((2-(5-chloro-1H-pyrrolo[2,3-b]pyridin-3-yl)-5-fluoropyrimidin-4-ylamino)methyl)piperidin-1-yl)-2-phenylethanone]	< 5	< 5	–	–	–
CC(C)=CC(=O)N1CCC[C@H](CNc2nc(-c3c[nH]c4ncc(Cl)cc34)ncc2F)C1 [Compound 57, (R)-1-(3-((2-(5-chloro-1H-pyrrolo[2,3-b]pyridin-3-yl)-5-fluoropyrimidin-4-ylamino)methyl)piperidin-1-yl)-3-methylbut-2-en-1-one]	–	–	< 5	< 5	–
O=S(=O)(/C=C/c1ccccc1)N1CCC[C@H](CNc2nc(-c3c[nH]c4ncc(Cl)cc34)ncc2F)C1 [Compound 60, (R,E)-2-(5-chloro-1H-pyrrolo[2,3-b]pyridin-3-yl)-5-fluoro-N-((1-(styrylsulfonyl)piperidin-3-yl)methyl)pyrimidin-4-amine]	< 5	< 5	–	–	–
O=S(=O)(C1CC1)N1CCC[C@H](CNc2nc(-c3c[nH]c4ncc(Cl)cc34)ncc2F)C1 [Compound 61, (R)-2-(5-chloro-1H-pyrrolo[2,3-b]pyridin-3-yl)-N-((1-(cyclopropylsulfonyl)piperidin-3-yl)methyl)-5-fluoropyrimidin-4-amine]	< 5	< 5	–	–	–
COc1cccc(S(=O)(=O)N2CCC[C@H](CNc3nc(-c4c[nH]c5ncc(Cl)cc45)ncc3F)C2)c1 [Compound 62, (R)-2-(5-chloro-1H-pyrrolo[2,3-b]pyridin-3-yl)-5-fluoro-N-((1-(3-methoxyphenylsulfonyl)piperidin-3-yl)methyl)pyrimidin-4-amine]	< 5	< 5	–	–	–
O=S(=O)(c1ccc(F)cc1)N1CCC[C@H](CNc2nc(-c3c[nH]c4ncc(Cl)cc34)ncc2F)C1 [Compound 64, (R)-2-(5-chloro-1H-pyrrolo[2,3-b]pyridin-3-yl)-5-fluoro-N-((1-(4-fluorophenylsulfonyl)piperidin-3-yl)methyl)pyrimidin-4-amine]	5 to 20	< 5	–	–	–
O=S(=O)(c1cccc(F)c1)N1CCC[C@H](CNc2nc(-c3c[nH]c4ncc(Cl)cc34)ncc2F)C1 [Compound 65, (R)-2-(5-chloro-1H-pyrrolo[2,3-b]pyridin-3-yl)-5-fluoro-N-((1-(3-fluorophenylsulfonyl)piperidin-3-yl)methyl)pyrimidin-4-amine]	< 5	< 5	–	–	–
Cc1cccc(S(=O)(=O)N2CCC[C@H](CNc3nc(-c4c[nH]c5ncc(Cl)cc45)ncc3F)C2)c1 [Compound 66, (R)-2-(5-chloro-1H-pyrrolo[2,3-b]pyridin-3-yl)-5-fluoro-N-((1-(m-tolylsulfonyl)piperidin-3-yl)methyl)pyrimidin-4-amine]	< 5	< 5	–	–	–
O=S(=O)(c1cccc(Br)c1)N1CCC[C@H](CNc2nc(-c3c[nH]c4ncc(Cl)cc34)ncc2F)C1 [Compound 67, (R)—N-((1-(3-bromophenylsulfonyl)piperidin-3-yl)methyl)-2-(5-chloro-1H-pyrrolo[2,3-b]pyridin-3-yl)-5-fluoropyrimidin-4-amine]	< 5	< 5	–	–	–
O=C(Oc1ccccc1)N1CCC[C@H](CNc2nc(-c3c[nH]c4ncc(Cl)cc34)ncc2F)C1 [Compound 68, (R)-phenyl 3-((2-(5-chloro-1H-pyrrolo[2,3-b]pyridin-3-yl)-5-fluoropyrimidin-4-ylamino)methyl)piperidine-1-carboxylate]	–	–	5 to 20	–	< 5
COc1ccccc1OC(=O)N1CCC[C@H](CNc2nc(-c3c[nH]c4ncc(Cl)cc34)ncc2F)C1 [Compound 69, (R)-2-methoxyphenyl 3-((2-(5-chloro-1H-pyrrolo[2,3-b]pyridin-3-yl)-5-fluoropyrimidin-4-ylamino)methyl)piperidine-1-carboxylate]	–	–	< 5	–	< 5
O=C(Oc1ccccc1Cl)N1CCC[C@H](CNc2nc(-c3c[nH]c4ncc(Cl)cc34)ncc2F)C1 [Compound 70, (R)-2-chlorophenyl 3-((2-(5-chloro-1H-pyrrolo[2,3-b]pyridin-3-yl)-5-fluoropyrimidin-4-ylamino)methyl)piperidine-1-carboxylate]	–	–	< 5	–	< 5
C=C(C)OC(=O)N1CCC[C@H](CNc2nc(-c3c[nH]c4ncc(Cl)cc34)ncc2F)C1 [Compound 74, (R)-prop-1-en-2-yl 3-((2-(5-chloro-1H-pyrrolo[2,3-b]pyridin-3-yl)-5-fluoropyrimidin-4-ylamino)methyl)piperidine-1-carboxylate]	–	–	< 5	< 5	–
O=C(Nc1cccc(F)c1)N1CCC[C@H](CNc2nc(-c3c[nH]c4ncc(Cl)cc34)ncc2F)C1 [Compound 75, (R)-3-((2-(5-chloro-1H-pyrrolo[2,3-b]pyridin-3-yl)-5-fluoropyrimidin-4-ylamino)methyl)-N-(3-fluorophenyl)piperidine-1-carboxamide]	< 5	< 5	–	–	–
COc1cccc(NC(=O)N2CCC[C@H](CNc3nc(-c4c[nH]c5ncc(Cl)cc45)ncc3F)C2)c1 [Compound 76, (R)-3-((2-(5-chloro-1H-pyrrolo[2,3-b]pyridin-3-yl)-5-fluoropyrimidin-4-ylamino)methyl)-N-(3-methoxyphenyl)piperidine-1-carboxamide]	< 5	< 5	–	–	–
Cc1cccc(NC(=O)N2CCC[C@H](CNc3nc(-c4c[nH]c5ncc(Cl)cc45)ncc3F)C2)c1 [Compound 78, (R)-3-((2-(5-chloro-1H-pyrrolo[2,3-b]pyridin-3-yl)-5-fluoropyrimidin-4-ylamino)methyl)-N-m-tolylpiperidine-1-carboxamide]	< 5	< 5	–	–	–
CC(C)(CC(=O)O)CC(=O)N1CCC[C@H](CNc2nc(-c3c[nH]c4ncc(Cl)cc34)ncc2F)C1 [Compound 80, (R)-5-(3-((2-(5-chloro-1H-pyrrolo[2,3-b]pyridin-3-yl)-5-fluoropyrimidin-4-ylamino)methyl)piperidin-1-yl)-3,3-dimethyl-5-oxopentanoic acid]	< 5	< 5	–	–	–
O=C(O)CC1(CC(=O)N2CCC[C@H](CNc3nc(-c4c[nH]c5ncc(Cl)cc45)ncc3F)C2)CCCC1 [Compound 81, (R)-2-(1-(2-(3-((2-(5-chloro-1H-pyrrolo[2,3-b]pyridin-3-yl)-5-fluoropyrimidin-4-ylamino)methyl)piperidin-1-yl)-2-oxoethyl)cyclopentyl)ethanoic acid]	< 5	< 5	–	–	–
O=C(c1ccccc1Cl)N1CCC[C@H](CNc2nc(-c3c[nH]c4ncc(Cl)cc34)ncc2F)C1 [Compound 84, (R)-(3-((2-(5-chloro-1H-pyrrolo[2,3-b]pyridin-3-yl)-5-fluoropyrimidin-4-ylamino)methyl)piperidin-1-yl)(2-chlorophenyl)methanone]	< 5	< 5	–	–	–
O=C(c1ccc(F)c(F)c1)N1CCC[C@H](CNc2nc(-c3c[nH]c4ncc(Cl)cc34)ncc2F)C1 [Compound 85, (R)-(3-((2-(5-chloro-1H-pyrrolo[2,3-b]pyridin-3-yl)-5-fluoropyrimidin-4-ylamino)methyl)piperidin-1-yl)(3,4-difluorophenyl)methanone]	5 to 20	< 5	–	–	–
